According to patent publication EP0483631A1, “3-Oxy substituted isoxazolines, process for their preparation and their utilization against Endoparasites” (BAYER AG, priority 1990, dated 1992):

Tests used:
Haemonchus contortus = assay: In vivo nematode test, Haemonchus contortus / sheep (faecal count before and after treatment); set-up: species or system Schaf; settings: experimentally infected sheep, treated after the prepatent period, pure active ingredient in gelatine capsules, oral, dose giving complete cessation of egg excretion, read-out: Dosis effectiva
Source text: Haemonchus contortus / Schaf
Experimentell mit Haemonchus contortus infizierte Schafe wurden nach Ablauf der Präpatenzzeit des Parasiten behandelt. Die Wirkstoffe wurden als reiner Wirkstoff in Gelatinekapseln oral appliziert.
Der Wirkungsgrad wird dadurch bestimmt, daß man die mit dem Kot ausgeschiedenen […] vor und nach der Behandlung quantitativ auszählt.
(§1) Ein völliges Sistieren der Eiausscheidung nach der Behandlung bedeutet, daß die Würmer abgetrieben wurden oder so geschädigt sind, daß sie keine Eier mehr produzieren (Dosis effectiva).
Geprüfte Wirkstoffe und wirksame Dosierungen (Dosis effectiva) sind aus der nachfolgenden Tabelle ersichtlich: […]

[1] = test system: Trichostrongylus colubriformis; assay: In vivo nematode test, Trichostrongylus colubriformis / sheep (faecal egg count before and after treatment); set-up: species or system Schaf; settings: experimentally infected sheep, treated after the prepatent period, pure active ingredient in gelatine capsules, oral, dose giving complete cessation of egg excretion, read-out: Dosis effectiva
Source text: Trichostrongylus colubriformis / Schaf
Experimentell mit Trichostrongylus colubriformis infizierte Schafe wurden nach Ablauf der Präpatenzzeit des Parasiten behandelt. Die Wirkstoffe wurden als reiner Wirkstoff in Gelatinekapseln oral appliziert.
Der Wirkungsgrad wird dadurch bestimmt, daß man die mit dem Kot ausgeschiedenen Wurmeier vor und nach der Behandlung quantitativ auszählt.
as §1
Geprüfte Wirkstoffe und wirksame Dosierungen (Dosis effectiva) sind aus der nachfolgenden Tabelle ersichtlich.

Compound | minimal effective dose (Haemonchus contortus) | minimal effective dose [1]
COC1=NOC[C@H]1NC(=O)c1ccccc1C(=O)O [Beispiel 1, (R)-N-(4,5-Dihydro-3-methoxy-4-isoazolyl)-phthalamidsäure] | 10 mg/kg | 25 mg/kg
O=C(O)c1ccccc1C(=O)N[C@@H]1CON=C1OCc1cccc(Cl)c1 [Beispiel 2, (R)-N-[4-5-Dihydro-3-(-3-chlorphenyl)-methoxy-4-isoxazolyl]-phthalamidsäure] | 10 mg/kg | 25 mg/kg
CC(C)OC1=NOCC1NC(=O)c1ccccc1C(=O)O (stereo not drawn) [Beispiel 3] | 10 mg/kg | 25 mg/kg
